The values below come from ChEMBL document CHEMBL4483862, “Open-source discovery of chemical leads for next-generation chemoprotective antimalarials” (2018).

For this assay, the system named is Plasmodium berghei. Nature of the assay: Luciferase/luciferin-expressing antifolate-resistant parasites were used to infect a culture of HepG2 cells that were pre-incubated with compounds. Infected hepatocytes emit light due to the luciferase reaction. Assay results are presented as the percent inhibition of light emission compared to control. […]. Type of assay: functional. Conditions: sporozoite; for IC90: read-out: LUCIFERASE INFECTION ASSAY - IC90.

[1] abbreviates: read-out: LUCIFERASE INFECTION ASSAY - IC50.

The term IC50 denotes the concentration that inhibits the measured activity by half. One may read the IC90 as the point of the concentration-response curve where the effect stands at 90%.

In the case of `COc1ccc2[nH]cc(CCNC(=O)c3ccc(-c4cccc(NC(C)=O)c4)nc3NCc3cccnc3)c2c1`, the IC90 came out at 5.13 µM. The IC50 (FFLUC_HILL_SLOPE 1.54, FFLUC_R_SQUARED 0.292, HEPG2TOX_HILL_SLOPE 0.912, HEPG2TOX_R_SQUARED 0.95, PBLUC_HILL_SLOPE 1.88, PBLUC_R_SQUARED 0.271, read-out: LUCIFERASE INFECTION ASSAY - IC50) stood at 1.59 µM.

As for `Cc1cc(C(=O)C[n+]2ccc(N(C)C)cc2)c(C)n1Cc1ccccc1`, the concentration for an effect of 90% (IC90) stood at 4.24 µM. Besides, the IC50 (HEPG2TOX_HILL_SLOPE 1.63, HEPG2TOX_R_SQUARED 0.735, PBLUC_HILL_SLOPE 13.8, 4.61, PBLUC_R_SQUARED 0.572, 0.235, read-out: LUCIFERASE INFECTION ASSAY - IC50) stood at 3.09 µM.

On to `N#Cc1ccc(/C=N/NC(=O)c2ccc(COc3ccccc3-c3ccccc3)cc2)cc1`, for which the IC90 amounted to 9.24 µM. The half-inhibitory concentration (IC50) (FFLUC_HILL_SLOPE 15.4, FFLUC_R_SQUARED 0.374, HEPG2TOX_HILL_SLOPE 8.76, HEPG2TOX_R_SQUARED 0.561, PBLUC_HILL_SLOPE 30.2, PBLUC_R_SQUARED 0.437, read-out: LUCIFERASE INFECTION ASSAY - IC50) was found to be 8.6 µM.

On to `CC(C)c1ccc(-c2nnc(NC(=O)c3cn4ccccc4n3)s2)cc1`, for which the IC90 was above 10 µM. Besides, the IC50 under setting [1] was 9.54 µM.

Regarding `CC1=NN(c2ccccc2)C(=O)/C1=C\c1cc(C)n(-c2cc(C(F)(F)F)ccc2Cl)c1C`, the 90% effect concentration (IC90) was above 10 µM. Moreover, the concentration for half-maximal inhibition (IC50) (FFLUC_HILL_SLOPE 2.69, FFLUC_R_SQUARED 0.551, PBLUC_HILL_SLOPE 5.7, PBLUC_R_SQUARED 0.538, read-out: LUCIFERASE INFECTION ASSAY - IC50) is 7.1 µM.

For the molecule `c1cc2c(cc1C1=NNC(=NC3CC3)SC1)CCCC2`, the IC90 came out at 0.277 µM. Besides, for the setting “FFLUC_HILL_SLOPE 1.51, FFLUC_R_SQUARED 0.952, HEPG2TOX_HILL_SLOPE 2.86, HEPG2TOX_R_SQUARED 0.94, PBLUC_HILL_SLOPE 0.977, PBLUC_R_SQUARED 0.884, read-out: LUCIFERASE INFECTION ASSAY - IC50”, the 50% inhibitory concentration (IC50) was determined as 0.0292 µM.

Turning to `COc1cc(Cl)c(C)cc1-n1c(Sc2ccc([N+](=O)[O-])c(C(F)(F)F)c2)nc2ccccc2c1=O`, the concentration for an effect of 90% (IC90) is above 10 µM. Moreover, the IC50 (FFLUC_HILL_SLOPE 1.25, FFLUC_R_SQUARED 0.54, HEPG2TOX_HILL_SLOPE 0.668, HEPG2TOX_R_SQUARED 0.6, PBLUC_HILL_SLOPE 3.18, PBLUC_R_SQUARED 0.355, read-out: LUCIFERASE INFECTION ASSAY - IC50) came to 6.33 µM.

For the molecule `O=C(NC1CC1)c1csc(C(O)c2cccc(OC(F)(F)F)c2)n1` (stereo not given), the IC90 came out at 0.901 µM. Also, the concentration for half-maximal inhibition (IC50) (HEPG2TOX_HILL_SLOPE 2.47, HEPG2TOX_R_SQUARED 0.742, PBLUC_HILL_SLOPE 2.02, PBLUC_R_SQUARED 0.793, read-out: LUCIFERASE INFECTION ASSAY - IC50) is 0.304 µM.

Take `NC(=O)c1cc(-c2cs/c(=N\c3ccccc3F)n2C2CCCC2)ccc1O`: the IC90 is above 10 µM. For the setting “PBLUC_HILL_SLOPE 1.38, PBLUC_R_SQUARED 0.237, read-out: LUCIFERASE INFECTION ASSAY - IC50”, the IC50 was determined as 4.32 µM.

Take `Cc1ccccc1OC1=C(Cl)C(=O)c2ccccc2C1=O`: the IC90 came to 9.86 µM. The 50% inhibitory concentration (IC50) (FFLUC_HILL_SLOPE 16.7, FFLUC_R_SQUARED 0.318, HEPG2TOX_HILL_SLOPE 9.14, HEPG2TOX_R_SQUARED 0.751, PBLUC_HILL_SLOPE 4.24, PBLUC_R_SQUARED 0.127, read-out: LUCIFERASE INFECTION ASSAY - IC50) is 5.87 µM.

Consider `CC(C)N1CCC(C)(C(=O)Nc2ccc3c(c2)C(=O)N(C)C3=O)C1` (stereo not given), for which the IC90 was above 10 µM. In addition, the IC50 under setting [1] was above 10 µM.

Take `CCNC(=O)C(C)Nc1ncnc2scc(-c3ccc(OC)cc3)c12` (stereo not given): the IC90 amounted to 9.59 µM. Moreover, for the setting “FFLUC_HILL_SLOPE 11.3, FFLUC_R_SQUARED 0.625, HEPG2TOX_HILL_SLOPE 3.17, HEPG2TOX_R_SQUARED 0.973, PBLUC_HILL_SLOPE 4.87, PBLUC_R_SQUARED 0.647, read-out: LUCIFERASE INFECTION ASSAY - IC50”, the IC50 came to 6.11 µM.

As for `CC(Nc1ncnc2sccc12)c1ccc(F)cc1` (stereo not given), the 90% effect concentration (IC90) came to 8.6 µM. The IC50 (HEPG2TOX_HILL_SLOPE 0.743, HEPG2TOX_R_SQUARED 0.939, PBLUC_HILL_SLOPE 0.968, PBLUC_R_SQUARED 0.762, read-out: LUCIFERASE INFECTION ASSAY - IC50) came to 0.889 µM.

Take `CC(=O)c1c(C)[nH]c(C(=O)CSc2c(C)c(C)cc(C)c2C)c1C`: the 90% effect concentration (IC90) was above 10 µM. Under “PBLUC_HILL_SLOPE 11.6, PBLUC_R_SQUARED 0.344, read-out: LUCIFERASE INFECTION ASSAY - IC50”, the IC50 is above 10 µM.

In the case of `COCCn1cnc2c1c(=O)n(CC(=O)NC1(C#N)CCCCCC1)c(=O)n2CC(C)C`, the IC90 is above 10 µM. Besides, the IC50 under setting [1] was above 10 µM.

As to `CCCn1c(CCC(=O)OCC(=O)c2ccc(NC(=O)CC(C)C)cc2)nc2cc(S(=O)(=O)N3CCCC3)ccc21`, the concentration for an effect of 90% (IC90) is above 10 µM. Also, the half-inhibitory concentration (IC50) under setting [1] is above 10 µM.

Turning to `CCCn1c(SCC(=O)N(C)C(C)c2nc3ccccc3s2)nc2sc3c(c2c1=O)CCC3` (stereo not given), the IC90 is 3.37 µM. Where the note is “HEPG2TOX_HILL_SLOPE 1.5, HEPG2TOX_R_SQUARED 0.705, PBLUC_HILL_SLOPE 172, PBLUC_R_SQUARED 0.534, read-out: LUCIFERASE INFECTION ASSAY - IC50”, the IC50 turned out to be 3.33 µM.

As for `COc1ccc(-c2cn3c(-c4cccc(O)c4)cnc3cn2)cn1`, the 90% effect concentration (IC90) was above 10.4 µM. In addition, the 50% inhibitory concentration (IC50) under setting [1] was above 10.4 µM.

As for `O=C(Nc1ccccc1)Nc1cc(NC(=O)Nc2ccccc2)cc(C(F)(F)F)c1`, the concentration for an effect of 90% (IC90) was above 7.96 µM. Moreover, the IC50 (HEPG2TOX_HILL_SLOPE 2.43, HEPG2TOX_R_SQUARED 0.913, read-out: LUCIFERASE INFECTION ASSAY - IC50) is above 7.96 µM.

In the case of `COC(=O)c1c(C)[nH]c(-c2csc(N3CCCCC3)n2)c1C`, the IC90 was above 10 µM. The IC50 under setting [1] was above 10 µM.

On to `Cn1cc(-c2cnc3cnc(-c4ccncc4)cn23)cn1`, for which the IC90 is above 11.9 µM. Also, under “HEPG2TOX_HILL_SLOPE 1.93, HEPG2TOX_R_SQUARED 0.473, PBLUC_HILL_SLOPE 0.98, PBLUC_R_SQUARED 0.306, read-out: LUCIFERASE INFECTION ASSAY - IC50”, the concentration for half-maximal inhibition (IC50) was 10.1 µM.

With `COc1ccc2nc(C)cc(NC(C)CCc3ccccc3)c2c1` (stereo not given), the IC90 is above 10 µM. Also, the IC50 (PBLUC_HILL_SLOPE 1.9, PBLUC_R_SQUARED 0.397, read-out: LUCIFERASE INFECTION ASSAY - IC50) is 6.04 µM.

Regarding `CCOC(=O)c1ccc(OC(C)C(=O)NC2CCCC(C)C2C)cc1` (stereo not given), the IC90 is above 10 µM. In addition, the IC50 under setting [1] is above 10 µM.

Take `CC(C)c1ccc(N2C(=O)/C(=C\c3ccccc3OCc3ccccn3)NC2=S)cc1`: the IC90 came out at 3.92 µM. In addition, under “HEPG2TOX_HILL_SLOPE 3.89, HEPG2TOX_R_SQUARED 0.964, PBLUC_HILL_SLOPE 2.57, PBLUC_R_SQUARED 0.661, read-out: LUCIFERASE INFECTION ASSAY - IC50”, the IC50 worked out at 1.67 µM.

In the case of `CCCC(CNC(=O)COC(=O)c1ccc2[nH]c3c(c2c1)CCCC3)c1ccc(Cl)cc1Cl` (stereo not given), the IC90 is above 10 µM. For the same molecule, the IC50 (HEPG2TOX_HILL_SLOPE 0.187, HEPG2TOX_R_SQUARED 0.0336, read-out: LUCIFERASE INFECTION ASSAY - IC50) is above 10 µM.

Regarding `Cc1ccc(C2(c3ccccc3)NC(=O)N(CC(=O)c3ccc(Br)s3)C2=O)cc1C` (stereo not given), the IC90 was 3.91 µM. Also, the 50% inhibitory concentration (IC50) (FFLUC_HILL_SLOPE 2.42, FFLUC_R_SQUARED 0.19, PBLUC_HILL_SLOPE 12.8, PBLUC_R_SQUARED 0.482, read-out: LUCIFERASE INFECTION ASSAY - IC50) was found to be 3.29 µM.

Take `CSc1ccc(-c2cn3c(-c4cccc(CO)c4)cnc3cn2)cc1`: the IC90 is above 9.5 µM. The half-inhibitory concentration (IC50) under setting [1] was above 9.5 µM.

For `CSc1nnc(-c2ccc(C(C)(C)C)cc2)n1-c1ccc(Cl)cc1`, the IC90 is above 9.22 µM. In addition, the half-inhibitory concentration (IC50) (PBLUC_HILL_SLOPE 1.19, PBLUC_R_SQUARED 0.789, read-out: LUCIFERASE INFECTION ASSAY - IC50) is above 9.22 µM.

As to `CC(C)Oc1ccc(S(=O)(=O)N2CCOCC2)cc1NC(=O)c1cc(-c2ccccc2)n[nH]1`, the 90% effect concentration (IC90) turned out to be 4.44 µM. The half-maximal inhibitory concentration (IC50) (HEPG2TOX_HILL_SLOPE 13.1, HEPG2TOX_R_SQUARED 0.378, PBLUC_HILL_SLOPE 12.6, PBLUC_R_SQUARED 0.276, read-out: LUCIFERASE INFECTION ASSAY - IC50) was determined as 3.73 µM.

For `Cc1ccc(NC(=O)c2csc(Cc3c(Cl)cccc3Cl)n2)cc1`, the concentration for an effect of 90% (IC90) is above 8.75 µM. In addition, the half-inhibitory concentration (IC50) under setting [1] was above 8.75 µM.

For `COc1ccc(-c2ccnn2-c2nc3ccccc3nc2C(F)(F)F)cc1`, the IC90 was 8.87 µM. Moreover, where the note is “FFLUC_HILL_SLOPE 12, FFLUC_R_SQUARED 0.622, HEPG2TOX_HILL_SLOPE 8.32, HEPG2TOX_R_SQUARED 0.411, PBLUC_HILL_SLOPE 4.15, PBLUC_R_SQUARED 0.462, read-out: LUCIFERASE INFECTION ASSAY - IC50”, the IC50 stood at 5.22 µM.

Take `NC(Cc1ccccc1)c1csc(NC(=O)NC(c2ccccc2)c2ccccc2)n1` (stereo not given): the 90% effect concentration (IC90) was above 7.7 µM. Further, the half-inhibitory concentration (IC50) under setting [1] was above 7.7 µM.

Regarding `Cc1cc(C(=O)Nc2nc3ccc(Cl)cc3s2)c2c(C)nn(C)c2n1`, the 90% effect concentration (IC90) stood at 9.09 µM. In addition, the IC50 (HEPG2TOX_HILL_SLOPE 1.29, HEPG2TOX_R_SQUARED 0.966, PBLUC_HILL_SLOPE 2.52, PBLUC_R_SQUARED 0.194, read-out: LUCIFERASE INFECTION ASSAY - IC50) amounted to 3.81 µM.

For the molecule `Clc1ccc2c(c1)nnc1nnnn12`, the IC90 is 1.91 µM. Also, the IC50 under setting [1] worked out at 1.66 µM.

In the case of `Cc1ccc(NC(=O)COc2ccc(CCO)cc2-n2nc3ccccc3n2)cc1C`, the concentration for an effect of 90% (IC90) was above 10 µM. Under setting [1], the IC50 is above 10 µM.
